Patent EP4650351A1, “INHIBITOR OF COMPLEMENT FACTOR B” (Nanjing Chia Tai Tianqing Pharmaceutical Co., Ltd., priority 2023, dated 2024)

Columns and labels:
[1] = molecular target: T1, human complement factor B (Homo sapiens, UniProt P00751); assay: TR-FRET competitive binding assay of human complement factor B (Cy5-labeled probe); settings: inhibitory activity against complement factor B; biotin-labeled factor B 25 nM, Cy5 probe 75 nM, 4 °C
T1 construct: purchased ComplementTech A135

[2] = Pharmacokinetic study in mice; type: in vivo; settings: mouse, 10 mg/kg, PO (10 mpk), male ICR (CD-1) mice, plasma; for AUC(0-t): read-out: AUC0-24
Experimental: Experimental Example 3: Pharmacokinetic study in mice
Purpose of the experiment: To investigate the plasma pharmacokinetics in male ICR (CD-1) mice after single intravenous administration and gavage administration of the compounds of the present disclosure.
Experimental animals: Male ICR (CD-1) mice, body weight 32-35 g; supplier: Vital River Laboratory Animal Technology Co., Ltd.
Experimental procedures: Intravenous Administration (IV); Oral Gavage (PO); the dose was 10 mg/kg (vehicle: water (containing 0.5% methylcellulose (w/v) and 0.5% Tween 80 (v/v)).
Sample collection: At each set time point, 40 µL of blood was collected from the orbital sinus of the experimental animals. Whole blood samples were placed in anticoagulant tubes containing EDTA-K2. The whole blood samples were centrifuged at 1500 g for 10 min to separate plasma. The upper-layer plasma samples were collected into sample tubes for LC-MS/MS analysis.
Data analysis: Plasma concentrations were processed using the non-compartmental model in WinNonlin™Version6.3 (Pharsight, Mountain View, CA) pharmacokinetic software. Pharmacokinetic parameters Cl, T1/2, Cmax, and AUC0-24 were calculated using the linear-log trapezoidal method, and the results were shown in the table below. Table 3. Results of the pharmacokinetic study

[3] = system: alternative complement pathway in human serum; assay: Complement deposition assay of serum alternative pathway (Wieslab Complement system Alternative pathway kit); type: biochemical; settings: human serum diluted 18-fold, 37 °C 60 minutes, absorbance 405 nm
Experimental: The Wieslab® Complement system Alternative pathway kit (WIESLAB® Complement system Alternative pathway AP330 RUO) was used to detect the inhibitory activity of the compounds on the alternative complement pathway in human serum. Human serum was diluted 18-fold with the kit diluent. The diluted serum was added to a 96-well plate at 130 µL/well. Using a compound titrator (Tecan, D300e), test compounds at corresponding concentrations were added. The test concentration of the compounds started at 10 µM, with 3-fold serial dilution for 6 concentration points, detected in single wells. The DMSO ratio was uniformly adjusted to 0.1% using DMSO in all drug-treated wells. In the positive control wells, 0.1% DMSO and 130 µL of diluted serum were added; in the negative control wells, 0.1% DMSO and 130 µL of the kit diluent were added. The mixtures were pre-incubated at room temperature for 15 min. The incubated mixtures were transferred to the 96-well plate provided by the kit at 100 µL per well, incubated at 37 °C for 60 minutes, and the liquid in the wells was discarded. 300 µL of the washing solution in the kit was added to each well. The wells were washed three times. 100 µL of the conjugated antibody Conjugate in the kit was added to each well, and it was incubated at room temperature for 30 minutes. The liquid in the wells was removed. 300 µL of the washing solution in the kit was added to each well and the wells were washed three times. 100 µL of the substrate solution was added to each well and incubated at room temperature for 30 minutes. […] Table 2. Results of complement deposition in serum alternative pathway

T1 sequence (P00751 26-764): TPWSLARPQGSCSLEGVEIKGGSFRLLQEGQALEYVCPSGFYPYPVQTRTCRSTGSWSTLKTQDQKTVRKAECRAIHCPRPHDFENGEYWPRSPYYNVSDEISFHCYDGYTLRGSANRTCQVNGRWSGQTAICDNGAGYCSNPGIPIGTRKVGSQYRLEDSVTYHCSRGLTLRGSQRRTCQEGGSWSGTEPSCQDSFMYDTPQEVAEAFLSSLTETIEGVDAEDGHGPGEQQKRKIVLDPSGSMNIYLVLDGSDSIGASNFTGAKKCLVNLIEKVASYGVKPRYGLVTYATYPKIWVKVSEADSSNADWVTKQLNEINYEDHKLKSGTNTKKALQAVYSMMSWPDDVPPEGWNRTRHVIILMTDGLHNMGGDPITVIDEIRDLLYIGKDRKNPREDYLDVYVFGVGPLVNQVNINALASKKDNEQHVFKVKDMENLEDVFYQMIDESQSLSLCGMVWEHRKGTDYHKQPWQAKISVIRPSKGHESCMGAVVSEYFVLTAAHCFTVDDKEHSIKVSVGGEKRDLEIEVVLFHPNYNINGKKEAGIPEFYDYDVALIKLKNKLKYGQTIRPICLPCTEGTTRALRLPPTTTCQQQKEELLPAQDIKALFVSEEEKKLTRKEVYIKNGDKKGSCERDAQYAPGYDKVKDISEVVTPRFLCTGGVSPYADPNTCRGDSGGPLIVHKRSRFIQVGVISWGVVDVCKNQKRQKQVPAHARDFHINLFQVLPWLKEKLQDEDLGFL

Compound | IC50 [1] | further results
CCOC1CCC(Sc2c(OC)cc(C)c3[nH]ccc23)C(c2ccc(C(=O)O)cc2)C1 (single isomer, unassigned) [Example 19b-4] | 178 nM | –
CCO[C@H]1CCN(Cc2c(OC)cc(C)c3[nH]ccc23)[C@H](c2ccc(C(=O)O)cc2)C1 [LNP023, reference compound] | – | Cmax [2]: 1160 ng/mL; AUC(0-t) [2]: 4110 ng·h/mL
COc1cc(C)c2[nH]ccc2c1SC1CCN(CC(F)F)CC1c1ccc(C(=O)O)cc1 (single isomer, unassigned) [Example 16-4] | 196 nM | –
Cc1cc(OC(F)(F)F)c(O[C@@H]2CCN(CC(F)F)C[C@H]2c2ccc(C(=O)O)cc2)c2cc[nH]c12 [Example 30, 4-((3R,4R)-1-(2,2-difluoroethyl)-4-((7-methyl-5-(trifluoromethoxy)-1H-indol-4-yl)oxy)piperidin-3-yl)benzoic acid] | 72.2 nM | –
COc1cc(C)c2[nH]ccc2c1CN1CCN(CC2CC2)CC1c1ccc(C(=O)O)cc1 (racemic) [Example 4, (±)4-(4-(cyclopropylmethyl)-1-((5-methoxy-7-methyl-1H-indol-4-yl)methyl)piperazin-2-yl)benzoic acid] | > 1000 nM | –
COc1cc(C)c2[nH]ccc2c1CN1CCN(CCC(F)(F)F)CC1c1ccc(C(=O)O)cc1 (racemic) [Example 9, (±)4-(1-((5-methoxy-7-methyl-1H-indol-4-yl)methyl)-4-(3,3,3-trifluoropropyl)piperazin-2-yl) benzoic acid] | 28.2 nM | –
CCOC1CCC(Cc2c(OC)cc(C)c3[nH]ccc23)N(c2ccc(C(=O)O)cc2)C1 (single isomer, unassigned) [Example 32a-2, 4-(5-ethoxy-2-((5-methoxy-7-methyl-1H-indol-4-yl)methyl)piperidin-1-yl)benzoic acid] | 601 nM | –
COc1cc(C)c2[nH]ccc2c1CN1CCN(C2CC(C(F)(F)F)C2)CC1c1ccc(C(=O)O)cc1 (racemic) [Example 10-2, (±)4-(1-((5-methoxy-7-methyl-1H-indol-4-yl)methyl)-4-(3-(trifluoromethyl)cyclobutyl)piperazin-2-yl)benzoic acid] | 117 nM | –
COc1cc(C)c2[nH]ccc2c1CN1CCN(CC2CC2(F)F)CC1c1ccc(C(=O)O)cc1 (racemic) [Example 5, (±)4-(4-((2,2-difluorocyclopropyl)methyl)-1-((5-methoxy-7-methyl-1H-indol-4-yl)methyl)piperazin-2-yl)benzoic acid] | 202 nM | –
Cc1cc(OC(F)F)c(O[C@@H]2CCN(CC(F)(F)F)C[C@H]2c2ccc(C(=O)O)cc2)c2cc[nH]c12 [Example 28, 4-((3R,4R)-4-((5-(difluoromethoxy)-7-methyl-1H-indol-4-yl)oxy)-1-(2,2,2-trifluoroethyl)piperidin-3-yl)benzoic acid] | 46 nM | –
CCOC1CCC(Oc2c(OC)cc(C)c3[nH]ccc23)C(c2ccc(C(=O)O)cc2)C1 (single isomer, unassigned) [Example 20a-4] | 12.2 nM | IC50 [3]: 86.7 nM
CCOC1CCC(Sc2c(OC)cc(C)c3[nH]ccc23)C(c2ccc(C(=O)O)cc2)C1 (single isomer, unassigned) [Example 19a-2] | 224 nM | –
CCCN1CCN(Cc2c(OC)cc(C)c3[nH]ccc23)C(c2ccc(C(=O)O)cc2)C1 (racemic) [Example 1-2, (±)4-(1-((5-methoxy-7-methyl-1H-indol-4-yl)methyl)-4-propylpiperazin-2-yl)benzoic acid] | – | IC50 [3]: 132 nM
[2H]C([2H])([2H])Oc1cc(C)c2[nH]ccc2c1O[C@H]1CCN(CCC(F)(F)F)C[C@@H]1c1ccc(C(=O)O)cc1 (single isomer, unassigned) [Example 17a-2] | – | Cmax [2]: 679 ng/mL; AUC(0-t) [2]: 6480 ng·h/mL
COc1cc(C)c2[nH]ccc2c1CN1CCN(CC(F)F)CC1c1ccc(C(=O)O)cc1 (racemic) [Example 6-2, (±)4-(4-(2,2-difluoroethyl)-1-((5-methoxy-7-methyl-1H-indol-4-yl)methyl)piperazin-2-yl)benzoic acid] | – | IC50 [3]: 215 nM
COc1cc(C)c2[nH]ccc2c1O[C@H]1CCN(CCC(F)(F)F)C[C@@H]1c1ccc(C(=O)O)cc1 (single isomer, unassigned) [Example 15a-2] | – | IC50 [3]: 54.8 nM
CCOC1CCC(Sc2c(OC)cc(C)c3[nH]ccc23)C(c2ccc(C(=O)O)cc2)C1 (single isomer, unassigned) [Example 19b-2] | 8 nM | IC50 [3]: 104 nM

Now from value to compound, other results behind:

IC50 [1] | Compound | further results
285 nM | CCOC1CCC(Cc2c(OC)cc(C)c3[nH]ccc23)N(c2ccc(C(=O)O)cc2)C1 (single isomer, unassigned) [Example 32a-4, 4-(5-ethoxy-2-((5-methoxy-7-methyl-1H-indol-4-yl)methyl)piperidin-1-yl)benzoic acid] | –
70.7 nM | COc1cc(C)c2[nH]ccc2c1CN1CCN(CC(F)(F)F)CC1c1ccc(C(=O)O)cc1 (racemic) [Example 11-2, (±)4-(1-((5-methoxy-7-methyl-1H-indol-4-yl)methyl)-4-(2,2,2-trifluoroethyl)piperazin-2-yl) benzoic acid] | –
982 nM | COc1cc(C)c2[nH]ccc2c1O[C@H]1CCN(CC(F)F)C[C@@H]1c1ccc(C(=O)O)cc1 [Example 13a-1, 4-((3S,4S)-1-(2,2-difluoroethyl)-4-((5-methoxy-7-methyl-1H-indol-4-yl)oxy)piperidin-3-yl)benzoic acid] | –
23.7 nM | COc1cc(C)c2[nH]ccc2c1O[C@@H]1CCN(CC(F)(F)F)C[C@H]1c1ccc(-c2n[nH]c(=O)o2)cc1 [Example 33, 5-(4-((3R,4R)-4-((5-methoxy-7-methyl-1H-indol-4-yl)oxy)-1-(2,2,2-trifluoroethyl)piperidin-3-yl)phenyl)-1,3,4-oxadiazol-2(3H)-one] | –
31.2 nM | Cc1cc(OC(F)F)c(O[C@@H]2CCN(CC(F)F)C[C@H]2c2ccc(C(=O)O)cc2)c2cc[nH]c12 [Example 29, 4-((3R,4R)-1-(2,2-difluoroethyl)-4-((5-(difluoromethoxy)-7-methyl-1H-indol-4-yl)oxy)piperidin-3-yl) benzoic acid] | –
257 nM | CCOC1CCC(Sc2c(OC)cc(C)c3[nH]ccc23)C(c2ccc(C(=O)O)cc2)C1 (single isomer, unassigned) [Example 19a-4] | –
427 nM | Cc1cc(OC(F)(F)F)c(O[C@@H]2CCN(CC(F)(F)F)C[C@H]2c2ccc(C(=O)O)cc2)c2cc[nH]c12 [Example 31, 4-((3R,4R)-4-((7-methyl-5-(trifluoromethoxy)-1H-indol-4-yl)oxy)-1-(2,2,2-trifluoroethyl)piperidin-3-yl)benzoic acid] | –
12.2 nM | [2H]C([2H])([2H])Oc1cc(C)c2[nH]ccc2c1O[C@@H]1CCN(CC(F)F)C[C@H]1c1ccc(C(=O)O)cc1 [Example 26, 4-((3R,4R)-1-(2,2-difluoroethyl)-4-((5-(methoxy-d3)-7-methyl-1H-indol-4-yl)oxy)piperidin-3-yl) benzoic acid] | Cmax [2]: 944 ng/mL; AUC(0-t) [2]: 4960 ng·h/mL
9.13 nM | [2H]C([2H])([2H])Oc1cc(C)c2[nH]ccc2c1O[C@@H]1CCN(CC(F)(F)F)C[C@H]1c1ccc(C(=O)O)cc1 [Example 27, 4-((3R,4R)-4-((5-(methoxy-d3)-7-methyl-1H-indol-4-yl)oxy)-1-(2,2,2-trifluoroethyl)piperidin-3-yl) benzoic acid] | –
> 1000 nM | COc1cc(C)c2[nH]ccc2c1CN1CCN(CC(F)F)CC1c1ccc(C(=O)O)cc1 (racemic) [Example 6-1, (±)4-(4-(2,2-difluoroethyl)-1-((5-methoxy-7-methyl-1H-indol-4-yl)methyl)piperazin-2-yl)benzoic acid] | –
> 1000 nM | COc1cc(C)c2[nH]ccc2c1CN1CCN(C2COC2)CC1c1ccc(C(=O)O)cc1 (racemic) [Example 3, (±)-4-(1-((5-methoxy-7-methyl-1H-indol-4-yl)methyl)-4-(oxetan-3-yl)piperazin-2-yl)benzoic acid] | –
24 nM | Cc1cc(OC(F)F)c(OC2CCN(CCC(F)(F)F)CC2c2ccc(C(=O)O)cc2)c2cc[nH]c12 (single isomer, unassigned) [Example 25-2] | –
